Test results taken from article PMC6792352, “Limited Chemical Structural Diversity Found to Modulate Thyroid Hormone Receptor in the Tox21 Chemical Library” (Environmental Health Perspectives, 2019).
Counter-ions that a name gives are not always drawn.

assay: in vitro; settings: rat, gh3-tre-luc cells, AC50 (uM) modified / 1000

Row | Compound | CC50 at 24 h [µM]
1 | O=[N+]([O-])c1cc[n+]([O-])cc1 [4-Nitropyridine-1-oxide] | > 90
2 | Cc1nc(C)c(Cl)c(O)c1Cl [Clopidol] | > 50
3 | COc1cccc(C(=O)CCN[C@@H](C)[C@H](O)c2ccccc2)c1 [l-Oxyfedrine hydrochloride] | 13.4
4 | N#Cc1ccccn1 [2-Pyridinecarbonitrile] | > 100
5 | CC(C)=CCC/C(C)=C/COC=O [(2E)-3,7-Dimethylocta-2,6-dien-1-yl formate] | > 90
6 | CCCC[N+](C)(CCCC)CCCC [N,N-Dibutyl-N-methylbutan-1-aminium chloride] | > 90
7 | N=C(N)NCC1COc2ccccc2O1 (centres unmarked) [Guanoxan] | > 50
8 | C=CCc1cc(OC)c(O)c(C(=O)NCCO)c1 [Alibendol] | > 50
9 | NC[C@H]1O[C@H](O[C@H]2[C@H](O)[C@@H](O[C@H]3O[C@H](CO)[C@@H](O)[C@H](N)[C@H]3O)[C@H](N)C[C@@H]2N)[C@H](N)[C@@H](O)[C@@H]1O [Bekanamycin sulfate] | > 50
10 | CC1=C(C(=O)OC(C)C)C(c2cccc([N+](=O)[O-])c2)C(C(=O)OC2CN(C(c3ccccc3)c3ccccc3)C2)=C(N)N1 (centres unmarked) [Azelnidipine] | 4.41
11 | CC(C)(O)CCC(C)(C)O [2,5-Dimethylhexane-2,5-diol] | > 90
12 | CCCCCOC(=O)CCCCC [Pentyl hexanoate] | > 90
13 | O=C1CCCC(=O)O1 [Glutaric anhydride] | > 90
14 | CCO/N=C(\CC)C1=C(O)CC(c2c(C)cc(C)cc2C)CC1=O (centres unmarked) [Tralkoxydim] | > 90
15 | O=C(O)C(=O)Cc1ccccc1 [Phenylpyruvic acid] | > 90
16 | NC(=O)NC(N)=O [Imidodicarbonic diamide] | > 90
17 | BrC/C=C/CBr [(E)-1,4-Dibromo-2-butene] | > 20
18 | Cc1ccc(S(=O)(=O)NC2CCCCC2)cc1 [N-Cyclohexyl-4-methylbenzenesulfonamide] | > 90
19 | CC1=CC(C)C(C=O)C(C)C1 (centres unmarked) [Isocyclocitral] | > 90
20 | CN1C(C)(C)CCCC1(C)C [Pempidine d-tartaric acid] | > 50
21 | COc1ccc(-c2coc3cc(O)ccc3c2=O)cc1 [Formononetin] | > 90
22 | CN(C)c1cc(NC(=O)CNC(C)(C)C)c(O)c2c1C[C@H]1C[C@H]3[C@H](N(C)C)C(O)=C(C(N)=O)C(=O)[C@@]3(O)C(O)=C1C2=O [Tigecycline] | > 50
23 | Cc1cccc([N+](=O)[O-])c1C(=O)O [2-Methyl-6-nitrobenzoic acid] | > 90

Row | Compound | CC50 at 24 h [µM]
24 | CC(=O)Nc1c(I)c(C(=O)O)c(I)c(N(C)C(C)=O)c1I [Metrizoate sodium] | > 50
25 | COc1ccc(OC)cc1 [Hydroquinone dimethyl ether] | > 90
26 | C/C(=C(\CCOP(=O)(O)O)SC(=O)c1ccccc1)N(C=O)Cc1cnc(C)nc1N [Benfotiamine] | > 20
27 | CC(=O)S[C@H](C(=O)N[C@H]1Cc2ccccc2[C@H]2CCC[C@@H](C(=O)O)N2C1=O)C(C)C [Ilepatril] | > 90
28 | CCCCNC(N)=O [N-Butylurea] | > 90
29 | CCCCCCCCNC [N-Methyloctan-1-amine] | > 90
30 | Cc1ccccc1C(=O)N1CC/C(=N\OS(=O)(=O)O)c2ccc(Cl)cc21 [Alilusem potassium] | > 50
31 | O=S(=O)(O)c1cc(I)c(O)c2ncccc12 [Loretin] | > 50
32 | CC(C)(O)c1coc(S(=O)(=O)NC(=O)Nc2c3c(cc4c2CCC4)CCC3)c1 [CP-456773] | > 90
33 | C=CCS(=O)(=O)O [2-Propene-1-sulfonic acid, sodium salt] | > 90
34 | NNC(=S)NN [Thiocarbazide] | > 90
35 | CC(=O)O[C@]1(C(C)=O)CC[C@H]2[C@@H]3C[C@H](C)C4=CC(=O)CC[C@]4(C)[C@H]3CC[C@@]21C [Medroxyprogesterone acetate] | > 90
36 | O=C(Nc1ccc(Br)cc1)c1cc(Br)c(Br)s1 [Tibrofan] | 19.8
37 | O=C(O)c1nc(Cl)ccc1Cl [Clopyralid] | > 90
38 | O=C1CCC(c2ccccc2)(C2CCN(Cc3ccccc3)CC2)C(=O)N1 (centres unmarked) [Benzetimide] | > 50
39 | CN(C1CCCCC1)C1CCCCC1 [N-Cyclohexyl-N-methylcyclohexanamine] | > 90
40 | Brc1cc(Br)c(Oc2cc(Br)c(Br)cc2Br)cc1Br [2,2',4,4',5,5'-Hexabromodiphenyl ether] | > 50
41 | CC(=O)O[Si](C)(OC(C)=O)OC(C)=O [Methylsilanetriyl triacetate] | > 90
42 | Cc1ccc(CO)cc1 [4-Methylbenzyl alcohol] | > 90
43 | CC(=O)Oc1ccc(C(c2ccc(OC(C)=O)cc2)c2ccccn2)cc1 [Bisacodyl] | > 90
44 | CC(C)[C@H](C(=O)O[C@H](C#N)c1cccc(Oc2ccccc2)c1)c1ccc(Cl)cc1 [Esfenvalerate] | > 90
45 | O=S(=O)(O)c1cc(Cl)c(Cl)cc1Cl [2,4,5-Trichlorobenzenesulfonic acid] | > 90
46 | c1ccc2c(c1)Sc1ccccc1N2CC1CN2CCC1CC2 (centres unmarked) [Mequitazine] | 7.76

Row | Compound | CC50 at 24 h [µM]
47 | O=C(O)c1ccccc1[N+](=O)[O-] [2-Nitrobenzoic acid] | > 90
48 | COCC(C)OC(C)=O (centres unmarked) [1-Methoxy-2-propyl acetate] | > 90
49 | C[N+](C)(C)CCCCCC[N+](C)(C)C [N,N,N,N',N',N'-Hexamethylhexane-1,6-diaminium] | > 50
50 | CN1CCN(c2cc3c(cc2F)c(=O)c(C(=O)O)cn3-c2ccc(F)cc2)CC1 [Difloxacin hydrochloride] | > 50
51 | Clc1ccccn1 [2-Chloropyridine] | > 90
52 | O=C(O)c1cccnc1C(=O)O [Quinolinic acid] | > 90
53 | CCCCCCCCOC(=O)c1cc(O)c(O)c(O)c1 [Octyl gallate] | 2.6
54 | CCCN(CCC)CCc1cccc2c1CC(=O)N2 [Ropinirole] | > 50
55 | Cc1cccc2sc(N)nc12 [2-Amino-4-methylbenzothiazole] | > 90
56 | Cn1cnc([N+](=O)[O-])c1Sc1ncnc2nc[nH]c12 [Azathioprine] | > 50
57 | O=C1C=CC(=O)N1c1ccccc1 [1-Phenyl-1H-pyrrole-2,5-dione] | 5.48
58 | COc1ccc(C(C)=O)cc1 [4'-Methoxyacetophenone] | > 90
59 | COc1ccc(C(=O)c2ccc(O)cc2)c(OC)c1 [(2,4-dimethoxyphenyl)(4-hydroxyphenyl)methanone] | > 90
60 | C[C@H]1[C@H]2CC[C@H]3[C@@H]4CC=C5C[C@@H](N(C)C)CC[C@]5(C)[C@H]4CC[C@]23CN1C [Conessine] | > 50
61 | CC(C)C(=O)OC/C=C/c1ccccc1 [3-Phenylprop-2-en-1-yl 2-methylpropanoate] | > 90
62 | O=C(O)c1nc(=O)[nH]c(=O)[nH]1 [Potassium oxonate] | > 50
63 | CC/C=C\CCOC(=O)CC [(3Z)-Hex-3-en-1-yl propanoate] | > 90
64 | COc1ccc(/C=C/c2cc(OC)cc(=O)o2)cc1 [Yangonin] | > 40
65 | Cn1c(N)nc2nc[nH]c2c1=O [1-Methylguanine] | > 90
66 | CCN(CC)CCNC(=O)c1cc(S(C)(=O)=O)ccc1OC [Tiapride hydrochloride] | > 20
67 | CC1(C)OC(=O)NC1=O [Dimethadione] | > 90

same assay, conditions: rat, gh3-tre-luc cells, AC50 (uM) modified / 1000, Tox21_110001=Tox21_110973; viability, 1 nM T3 present, 24 h

Row | Compound | CC50 at 24 h [µM]
68 | C[C@H]1CCC[C@H](O)CCCCCc2cc(O)cc(O)c2C(=O)O1 [Zearalanol] | > 50

same assay, conditions: rat, gh3-tre-luc cells, AC50 (uM) modified / 1000, Tox21_110001=Tox21_111095; viability, 1 nM T3 present, 24 h

Row | Compound | CC50 at 24 h [µM]
69 | Nc1ccccc1C(=O)O [Anthranilic acid] | > 50

same assay, conditions: rat, gh3-tre-luc cells, AC50 (uM) modified / 1000, Tox21_110001=Tox21_112760; viability, 1 nM T3 present, 24 h

Row | Compound | CC50 at 24 h [µM]
70 | C[C@]12CC[C@H]3[C@@H](CCC4=C(O)C(=O)CC[C@@H]43)[C@@H]1CC[C@@H]2OC(=O)CCC1CCCC1 [Oxabolone cipioncate] | > 50

same assay, conditions: rat, gh3-tre-luc cells, AC50 (uM) modified / 1000, Tox21_110001=Tox21_200105; viability, 1 nM T3 present, 24 h

Row | Compound | CC50 at 24 h [µM]
71 | Oc1cc(Cl)c(Cl)c(Cl)c1Cl [2,3,4,5-Tetrachlorophenol] | 29.2

same assay, conditions: rat, gh3-tre-luc cells, AC50 (uM) modified / 1000, Tox21_110001=Tox21_200456; viability, 1 nM T3 present, 24 h

Row | Compound | CC50 at 24 h [µM]
72 | CCCCCCCCCCCCCCCl [1-Chlorotetradecane] | > 90

same assay, conditions: rat, gh3-tre-luc cells, AC50 (uM) modified / 1000, Tox21_110001=Tox21_200703; viability, 1 nM T3 present, 24 h

Row | Compound | CC50 at 24 h [µM]
73 | Nc1ccccc1C(=O)O [Anthranilic acid] | > 90

same assay, conditions: rat, gh3-tre-luc cells, AC50 (uM) modified / 1000, Tox21_110001=Tox21_201203; viability, 1 nM T3 present, 24 h

Row | Compound | CC50 at 24 h [µM]
74 | C[C@H]1CCC[C@H](O)CCCCCc2cc(O)cc(O)c2C(=O)O1 [Zearalanol] | 53.6

same assay, conditions: rat, gh3-tre-luc cells, AC50 (uM) modified / 1000, Tox21_110001=Tox21_202886; viability, 1 nM T3 present, 24 h

Row | Compound | CC50 at 24 h [µM]
75 | O=[N+]([O-])c1cccc2cccc([N+](=O)[O-])c12 [1,8-Dinitronaphthalene] | > 90

same assay, conditions: rat, gh3-tre-luc cells, AC50 (uM) modified / 1000, Tox21_110001=Tox21_300586; viability, 1 nM T3 present, 24 h

Row | Compound | CC50 at 24 h [µM]
76 | ClC1=C(Cl)[C@]2(Cl)C3C(Cl)C(Cl)CC3[C@@]1(Cl)C2(Cl)Cl (some centres unmarked) [Chlordane] | 25.5

same assay, conditions: rat, gh3-tre-luc cells, AC50 (uM) modified / 1000, Tox21_110001=Tox21_300875; viability, 1 nM T3 present, 24 h

Row | Compound | CC50 at 24 h [µM]
77 | CCC1CCC(=O)O1 (centres unmarked) [gamma-Caprolactone] | > 100

same assay, conditions: rat, gh3-tre-luc cells, AC50 (uM) modified / 1000, Tox21_110001=Tox21_301075; viability, 1 nM T3 present, 24 h

Row | Compound | CC50 at 24 h [µM]
78 | N#CCNCC#N [Iminodiacetonitrile] | > 90

same assay, conditions: rat, gh3-tre-luc cells, AC50 (uM) modified / 1000, Tox21_110001=Tox21_302015; viability, 1 nM T3 present, 24 h

Row | Compound | CC50 at 24 h [µM]
79 | CCCCNP(N)(N)=S [N-Butylphosphorothioic triamide] | > 90

same assay, conditions: rat, gh3-tre-luc cells, AC50 (uM) modified / 1000, Tox21_110001=Tox21_303381; viability, 1 nM T3 present, 24 h

Row | Compound | CC50 at 24 h [µM]
80 | CCC(=O)c1ccc(Cl)cc1 [Ethyl 4-chlorophenyl ketone] | > 90
